Where “and” joins values, the source holds several entries; their conditions need not be identical. Equal values may be shown once.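 Tested at 5 concentrations; 48 h exposure; 96-well plates; endpoints linearly interpolated, else capped at highest concentration. GI50: concentration for 50% inhibition of growth. The concentration for full growth arrest is given as TGI.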
Key:
Experiment in all cases: NCI anticancer screen, dose series, 48 h
RXF 393 renal = test system: RXF 393 renal
U251 CNS = test system: U251 CNS
786-0 renal = test system: 786-0 renal
TK-10 renal = test system: TK-10 renal
NCI-H460 lung = test system: NCI-H460 lung
IGROV1 ovarian = test system: IGROV1 ovarian
SF-268 CNS = test system: SF-268 CNS
A498 renal = test system: A498 renal
SNB-75 CNS = test system: SNB-75 CNS
NCI-H522 lung = test system: NCI-H522 lung

SMILES	GI50 (RXF 393 renal)	TGI (RXF 393 renal)	GI50 (U251 CNS)	TGI (U251 CNS)	GI50 (786-0 renal)	TGI (786-0 renal)	GI50 (TK-10 renal)	TGI (TK-10 renal) [µM]	GI50 (NCI-H460 lung)	TGI (NCI-H460 lung)	GI50 (IGROV1 ovarian)	TGI (IGROV1 ovarian) [µM]	GI50 (SF-268 CNS)	TGI (SF-268 CNS)	GI50 (A498 renal)	TGI (A498 renal)	GI50 (SNB-75 CNS)	TGI (SNB-75 CNS)	GI50 (NCI-H522 lung)	TGI (NCI-H522 lung) [µM]
NC1(C(=O)N[C@@H](CCO)c2ccc(Cl)cc2)CCN(c2ncnc3[nH]ccc23)CC1	130 nM and 354 nM	0.69 µM and 5.83 µM	> 3380 nM and 2000 nM	> 100 µM	292 nM and 354 nM	> 100 µM	1040 nM and 2560 nM	> 69.7	679 nM and 1740 nM	> 100 µM	102 nM and 270 nM	> 100	> 2.26 µM and 32.2 µM	> 100 µM	70.9 nM and 135 nM	0.522 µM and 0.939 µM	245 nM and 110 nM	> 3.28 µM and 2.19 µM	> 2050 nM and 17100 nM	> 90.3
CCOC(=O)C(=O)C(C#N)c1ccc(Cl)cc1 (stereo unspecified)	–	> 100 µM	–	> 100 µM	–	> 100 µM	–	> 100	–	> 100 µM	–	> 100	–	> 100 µM	–	> 100 µM	–	> 100 µM	–	> 100
COC(=O)[C@]12CC[C@@H](C)[C@H](C)[C@@H]1C1=CC[C@@H]3[C@@](C)(CC#N)C4=C(C[C@@]3(C)[C@]1(C)CC2)OC[C@]4(C)C=O	12000 nM	36.1 µM	3610 nM	19.2 µM	11600 nM	71.1 µM	8070 nM	> 100	10500 nM	28 µM	5280 nM	> 100	4.38 µM	> 100 µM	14700 nM	28.7 µM	3220 nM	> 100 µM	14700 nM	46.9
Cc1cc(Cl)cc2c1NC(=O)C2(O)C(C(=O)c1ccccc1)c1ccccc1 (stereo unspecified)	38000 nM and 16200 nM	86.1 µM and 31.7 µM	> 100000 nM and 31100 nM	> 100 µM	38200 nM and 12900 nM	> 100 µM and 29.3 µM	–	> 100	> 100000 nM and 36900 nM	> 100 µM	–	83	84.3 µM and 34.8 µM	> 100 µM and 95.3 µM	–	65.7 µM	–	83.2 µM and 60.7 µM	–	> 100
CN(C)C1CN(C(=O)c2cc(-c3ccc4ncnc(N5CCc6cc(F)c(Cl)cc65)c4c3)cnc2N)C1	369 nM	2.34 µM	1340 nM	> 100 µM	436 nM	> 100 µM	786 nM	4.95	574 nM	> 100 µM	223 nM	1.23	0.652 µM	> 100 µM	254 nM	0.832 µM	195 nM	2.02 µM	1770 nM	> 100
O=C(CCN1CCCN(c2cnc3ccccc3n2)CC1)c1csc2ccccc12	19400 nM	37.5 µM	17600 nM	31.4 µM	18400 nM	32.3 µM	16100 nM	29.5	32800 nM	> 100 µM	16200 nM	31.2	19.4 µM	38.6 µM	96700 nM	> 100 µM	17200 nM	31.6 µM	17300 nM	31.7
Fc1ccc(Nc2nc3nonc3nc2Nc2ccc(I)cc2)cc1	237 nM	0.817 µM	293 nM	10.8 µM	298 nM	2.59 µM	315 nM	2.18	312 nM	12.4 µM	217 nM	13.3	0.367 µM	17.9 µM	227 nM	0.708 µM	263 nM	11.7 µM	192 nM	0.693
O=C(/C=C/C=C/c1ccc2c(c1)OCO2)N/N=C\c1ccc(O)cc1O	1740 nM	6.88 µM	1640 nM	23 µM	2890 nM	11.8 µM	2950 nM	33	1580 nM	10.5 µM	2230 nM	14.3	1.73 µM	17.1 µM	2070 nM	7.15 µM	1890 nM	9.41 µM	2900 nM	15.3
CC1[C@@H]2CC=C3[C@H]4CCC5Cc6nc7c(nc6C[C@@]5(C)C4CC(=O)[C@]32CO[C@]12OC(C)(C)CC2O)CC1CC[C@@H]2C3=C[C@H]4O[C@@]5(O[C@@](C)(CO)C[C@@H]5O)C(C)[C@@]4(O)[C@]3(C)[C@@H](O)CC2[C@]1(C)C7 (stereo partly specified)	0.365 nM	0.000428 µM and 0.00414 µM	0.183 nM and 0.365 nM	0.129 µM and 0.0461 µM	0.168 nM	0.0303 µM	–	0.576	0.268 nM and 0.365 nM	0.013 µM and 0.116 µM	3.99 nM and 5.2 nM	–	0.0011 µM and 0.00472 µM	0.253 µM and 0.441 µM	0.721 nM	0.0187 µM and 0.0124 µM	0.365 nM	–	13.1 nM	–
COc1cc(C(=O)NN=C2c3ccccc3-c3ccccc32)cc(OC)c1OC	2760 nM	29.3 µM	3300 nM	20.3 µM	6860 nM	31.3 µM	7860 nM	32.6	3170 nM	26.6 µM	3470 nM	32.9	4.57 µM	27.7 µM	2950 nM	13.9 µM	2860 nM	21 µM	1770 nM	5.8
COCCn1c2c([n+](Cc3cnccn3)c1C)C(=O)c1ccccc1C2=O	15.6 nM	0.128 µM	< 10 nM	< 0.01 µM	14.3 nM	0.0992 µM	35.2 nM	0.222	20.8 nM	0.112 µM	< 10 nM	< 0.0169	< 0.01 µM	< 0.01 µM	98.7 nM	0.573 µM	31.3 nM	0.107 µM	< 10 nM	< 0.01
O=C(CC(=O)c1cccc([N+](=O)[O-])c1)C(=O)Nc1ccccc1	–	> 100 µM	–	> 100 µM	–	> 100 µM	–	> 100	–	> 100 µM	–	> 100	–	> 100 µM	–	> 100 µM	–	> 100 µM	–	> 100
CN1C2(c3ccccc3)C(C(=O)c3ccccc3)=C(C(=O)c3ccccc3)C1(c1ccccc1)c1c(-c3ccccc3)sc(-c3ccccc3)c12	–	> 100 µM	–	> 100 µM	–	> 100 µM	–	> 100	–	> 100 µM	–	> 100	–	> 100 µM	–	> 100 µM	–	> 100 µM	–	> 100
Cc1ccc(NC(=O)CC2SC(=Nc3ccc(Cl)cc3)NC2=O)cc1C (stereo unspecified)	–	32 µM	–	32.7 µM	–	32 µM	–	31.1	–	18.2 µM	–	> 60.8	–	33.4 µM	–	43.2 µM	–	33.2 µM	–	18.4
O=C(N/N=C/c1ccncc1)c1ccc(F)cc1	> 40000 nM	> 40 µM	> 40000 nM	> 40 µM	> 40000 nM	> 40 µM	> 40000 nM	> 40	> 40000 nM	> 40 µM	> 40000 nM	> 40	> 40 µM	> 40 µM	34800 nM	> 40 µM	> 40000 nM	> 40 µM	> 40000 nM	> 40
Cc1ccccc1-n1c(CCl)nc2ccc(Br)cc2c1=O	–	26.8 µM	–	25.9 µM	–	20.6 µM	–	70.1	–	28 µM	–	33.1	–	10.8 µM	–	60.8 µM	–	29 µM	–	5.83
C=CC(=O)N1CCC[C@@H](n2nc(-c3ccc(Oc4ccccc4)cc3)c3c(N)ncnc32)C1	> 5250 nM	> 10 µM	9810 nM	> 10 µM	> 4500 nM	> 10 µM	40.9 nM	3.14	> 10000 nM	> 10 µM	418 nM	> 10	> 4.98 µM	> 10 µM	460 nM	> 5.51 µM	> 5600 nM	> 10 µM	85.9 nM	> 10
CC(=O)Nc1cc2c3c(cccc3c1)-c1ccccc1-2	15800 nM	34.9 µM	39300 nM	> 100 µM	14200 nM	40 µM	18100 nM	32.5	29600 nM	> 100 µM	24200 nM	> 100	8.94 µM	> 100 µM	11600 nM	28.6 µM	> 100000 nM	> 100 µM	> 100000 nM	> 100
COc1cc(N2CCC(N)CC2)ccc1Nc1ncc(Cl)c(-c2c[nH]c3ccccc23)n1	338 nM	1.41 µM	407 nM	1.79 µM	546 nM	1.95 µM	360 nM	1.6	235 nM	1.66 µM	405 nM	2.23	0.846 µM	3.35 µM	123 nM	0.386 µM	417 nM	1.97 µM	447 nM	1.85
CC1=C(C(=O)Nc2ccc(C)cc2)C(c2cccc([N+](=O)[O-])c2)C(C(=O)Nc2ccc(C)cc2)=C(C)N1	–	63.2 µM	–	75.6 µM	–	> 100 µM	–	> 100	–	60.8 µM	–	66.8	–	52.2 µM	–	55.3 µM	–	81.4 µM	–	93.8

Source: PubChem BioAssay (NCI)
